Measurements from patent publication US10597388B2, “Pyridazinone herbicides” (FMC CORPORATION, priority 2014, dated 2020).

Key:
Test in all cases: Test D controlled growth environment herbicide test, pre- and postemergence
Type in all cases: in vivo
[1] = test system: lambsquarters (Chenopodium album)
Summary of the method: (§1)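 Species sown in silt loam and sprayed preemergence, or grown in peat-based medium to 2–18 cm (1- to 4-leaf stage) and sprayed postemergence, with compounds in non-phytotoxic solvent plus surfactant. Visual injury scored versus controls after 14–21 d in a controlled environment, 0 (no effect) to 100 (complete control).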

[2] = test system: windgrass (Apera spica-venti)
Summary of the method: as §1

[3] = test system: bromegrass, downy (downy bromegrass, Bromus tectorum)
Summary of the method: as §1

[4] = test system: radish, wild (wild radish, Raphanus raphanistrum)
Summary of the method: as §1

[5] = test system: blackgrass (Alopecurus myosuroides)
Summary of the method: as §1

[6] = test system: Russian thistle (Salsola kali)
Summary of the method: as §1

kochia (Kochia scoparia) = test system: kochia (Kochia scoparia)
Summary of the method: as §1

[7] = test system: deadnettle (henbit deadnettle, Lamium amplexicaule)
Summary of the method: as §1

[8] = test system: chamomile (scentless chamomile, Matricaria inodora)
Summary of the method: as §1

[9] = test system: speedwell (bird's-eye speedwell, Veronica persica)
Summary of the method: as §1

[10] = test system: wheat, winter (winter wheat, Triticum aestivum)
Summary of the method: as §1

[11] = test system: field violet (Viola arvensis)
Summary of the method: as §1

[12] = test system: ryegrass, Italian (Italian ryegrass, Lolium multiflorum)
Summary of the method: as §1

[13] = test system: chickweed (common chickweed, Stellaria media)
Summary of the method: as §1

[14] = Postemergence, 31 g ai/ha, scale 0 to 100 (0 no effect, 100 complete control)
[15] = Postemergence, 125 g ai/ha, visual rating on scale 0 (no effect) to 100 (complete control), 14 to 21 d
[16] = Postemergence, 250 g ai/ha, scale 0 to 100 (0 no effect, 100 complete control)
[17] = Preemergence, 62 g ai/ha, scale 0 to 100 (0 no effect, 100 complete control)
[18] = Preemergence, 125 g ai/ha, scale 0 to 100 (0 no effect, 100 complete control)
[19] = Preemergence, 250 g ai/ha, scale 0 to 100, 0 no effect, 100 complete control
[20] = postemergence, 62 g ai/ha, scale 0 to 100, 0 no effect, 100 complete control

## Cc1ccc2ccccc2c1-c1c(OC(=O)OC(C)C)c(C)nn(C)c1=O [Compound 72]
[1]; [14]
  Lambsquarters plant response rating: 80
[1]; [15]
  Plant response rating, Lambsquarters: 90
[1]; [16]
  Plant response rating, Lambsquarters: 100
[1]; Preemergence, 31 g ai/ha
  Plant response rating (scale of 0 to 100), Lambsquarters: 35
[1]; [17]
  Plant response rating, Lambsquarters: 100
[1]; [18]
  Plant response rating, Lambsquarters: 95
[1]; [19]
  Plant response rating, Lambsquarters: 95
[1]; [20]
  Plant response rating, Lambsquarters: 95
[2]; [14]
  Windgrass plant response rating: 65
[2]; [15]
  Plant response rating, Windgrass: 80
[2]; [16]
  Plant response rating, Windgrass: 85
[2]; Preemergence, 31 g ai/ha
  Plant response rating (scale of 0 to 100), Windgrass: 25
[2]; [17]
  Plant response rating, Windgrass: 65
[2]; [18]
  Plant response rating, Windgrass: 80
[2]; [19]
  Plant response rating, Windgrass: 90
[2]; [20]
  Plant response rating, Windgrass: 75
[3]; [14]
  Bromegrass, Downy plant response rating: 45
[3]; [15]
  Plant response rating, Bromegrass, Downy: 65
[3]; [16]
  Plant response rating, Bromegrass, Downy: 75
[3]; Preemergence, 31 g ai/ha
  Plant response rating (scale of 0 to 100), Bromegrass, Downy: 0
[3]; [17]
  Plant response rating, Bromegrass, Downy: 0
[3]; [18]
  Plant response rating, Bromegrass, Downy: 35
[3]; [19]
  Plant response rating, Bromegrass, Downy: 60
[3]; [20]
  Plant response rating, Bromegrass, Downy: 55
[4]; [14]
  Radish, Wild plant response rating: 75
[4]; [15]
  Plant response rating, Radish, Wild: 90
[4]; [16]
  Plant response rating, Radish, Wild: 95
[4]; Preemergence, 31 g ai/ha
  Plant response rating (scale of 0 to 100), Radish, Wild: 0
[4]; [17]
  Plant response rating, Radish, Wild: 0
[4]; [18]
  Plant response rating, Radish, Wild: 50
[4]; [19]
  Plant response rating, Radish, Wild: 50
[4]; [20]
  Plant response rating, Radish, Wild: 80
[5]; [14]
  Blackgrass plant response rating: 40
[5]; [15]
  Plant response rating, Blackgrass: 75
[5]; [16]
  Plant response rating, Blackgrass: 80
[5]; Preemergence, 31 g ai/ha
  Plant response rating (scale of 0 to 100), Blackgrass: 15
[5]; [17]
  Plant response rating, Blackgrass: 30
[5]; [18]
  Plant response rating, Blackgrass: 55
[5]; [19]
  Plant response rating, Blackgrass: 75
[5]; [20]
  Plant response rating, Blackgrass: 70
[6]; [14]
  Russian Thistle plant response rating: 70
[6]; [15]
  Plant response rating, Russian Thistle: 80
[6]; [16]
  Plant response rating, Russian Thistle: 85
[6]; Preemergence, 31 g ai/ha
  Plant response rating (scale of 0 to 100), Russian Thistle: 0
[6]; [17]
  Plant response rating, Russian Thistle: 10
[6]; [18]
  Plant response rating, Russian Thistle: 15
[6]; [19]
  Plant response rating, Russian Thistle: 25
[6]; [20]
  Plant response rating, Russian Thistle: 75
Kochia (Kochia scoparia); [14]
  Kochia plant response rating: 80
Kochia (Kochia scoparia); [15]
  Plant response rating, Kochia: 100
Kochia (Kochia scoparia); [16]
  Plant response rating, Kochia: 100
Kochia (Kochia scoparia); Preemergence, 31 g ai/ha
  Plant response rating (scale of 0 to 100), Kochia: 10
Kochia (Kochia scoparia); [17]
  Plant response rating, Kochia: 15
Kochia (Kochia scoparia); [18]
  Plant response rating, Kochia: 10
Kochia (Kochia scoparia); [19]
  Plant response rating, Kochia: 40
Kochia (Kochia scoparia); [20]
  Plant response rating, Kochia: 95
[7]; [14]
  Deadnettle plant response rating: 85
[7]; [15]
  Plant response rating, Deadnettle: 100
[7]; [16]
  Plant response rating, Deadnettle: 100
[7]; Preemergence, 31 g ai/ha
  Plant response rating (scale of 0 to 100), Deadnettle: 5
[7]; [17]
  Plant response rating, Deadnettle: 15
[7]; [18]
  Plant response rating, Deadnettle: 65
[7]; [19]
  Plant response rating, Deadnettle: 70
[7]; [20]
  Plant response rating, Deadnettle: 90
[8]; [14]
  Chamomile plant response rating: 75
[8]; [15]
  Plant response rating, Chamomile: 85
[8]; [16]
  Plant response rating, Chamomile: 100
[8]; [20]
  Plant response rating, Chamomile: 80
[9]; [14]
  Speedwell plant response rating: 75
[9]; [15]
  Plant response rating, Speedwell: 100
[9]; [16]
  Plant response rating, Speedwell: 80
[9]; Preemergence, 31 g ai/ha
  Plant response rating (scale of 0 to 100), Speedwell: 5
[9]; [17]
  Plant response rating, Speedwell: 70
[9]; [19]
  Plant response rating, Speedwell: 100
[9]; [20]
  Plant response rating, Speedwell: 75
[10]; [14]
  Wheat, Winter plant response rating: 25
[10]; [15]
  Plant response rating, Wheat, Winter: 50
[10]; [16]
  Plant response rating, Wheat, Winter: 60
[10]; Preemergence, 31 g ai/ha
  Plant response rating (scale of 0 to 100), Wheat, Winter: 5
[10]; [17]
  Plant response rating, Wheat, Winter: 10
[10]; [18]
  Plant response rating, Wheat, Winter: 25
[10]; [19]
  Plant response rating, Wheat, Winter: 45
[10]; [20]
  Plant response rating, Wheat, Winter: 35
[11]; [14]
  Field Violet plant response rating: 90
[11]; [15]
  Plant response rating, Field Violet: 95
[11]; [16]
  Plant response rating, Field Violet: 95
[11]; Preemergence, 31 g ai/ha
  Plant response rating (scale of 0 to 100), Field Violet: 10
[11]; [17]
  Plant response rating, Field Violet: 75
[11]; [18]
  Plant response rating, Field Violet: 75
[11]; [19]
  Plant response rating, Field Violet: 95
[11]; [20]
  Plant response rating, Field Violet: 95
[12]; [14]
  Ryegrass, Italian plant response rating: 95
[12]; [15]
  Plant response rating, Ryegrass, Italian: 95
[12]; [16]
  Plant response rating, Ryegrass, Italian: 100
[12]; Preemergence, 31 g ai/ha
  Plant response rating (scale of 0 to 100), Ryegrass, Italian: 55
[12]; [17]
  Plant response rating, Ryegrass, Italian: 75
[12]; [18]
  Plant response rating, Ryegrass, Italian: 100
[12]; [19]
  Plant response rating, Ryegrass, Italian: 90
[12]; [20]
  Plant response rating, Ryegrass, Italian: 95
[13]; [14]
  Chickweed plant response rating: 98
[13]; [15]
  Plant response rating, Chickweed: 100
[13]; [16]
  Plant response rating, Chickweed: 100
[13]; Preemergence, 31 g ai/ha
  Plant response rating (scale of 0 to 100), Chickweed: 70
[13]; [17]
  Plant response rating, Chickweed: 100
[13]; [18]
  Plant response rating, Chickweed: 100
[13]; [19]
  Plant response rating, Chickweed: 100
[13]; [20]
  Plant response rating, Chickweed: 100
